Assay results: patent US4469691A, “Hexamethylenetetramine-N-acetyl-thiazolidine-4-carboxylate, a process for its preparation and a pharmaceutical composition containing it” (Ausonia Farmaceutici s.r.l., priority 1982, dated 1984)
Where two headings read alike, the source gives them in different places.

What was measured:
Swiss mice = test: Acute oral toxicity in Swiss mice (Litchfield and Wilcoxon); format: in vivo; conditions: mouse
Citrobacter spp = test: In vitro antibacterial activity, M.I.C., Citrobacter spp; format: cell-based; conditions: of 3 strains, pH 5.5
Method: Citrobacter spp (3 strains).
(§1) As culture medium, Mueller Hinton Agar at pH 5.5 was used. The compounds under examination were dissolved in and diluted by sterile saline; 1 ml of the diluted solutions thus obtained was poured in Petri's dishes and 19 ml of Mueller Hinton Agar were subsequently added thereto.
(§2) The inoculation of bacteria was performed using a multi point inoculator and a 18 hour growth broth culture of each of the strains under examination. With this method the bacterial inoculum is equal to about 10^5 colony-forming units (CFU) per point. Reading of the results was performed after cultivating the plates for 18 hours at 37° C.

Enterococcus = test: In vitro antibacterial activity, M.I.C., Enterococcus (Streptococcus faecalis); format: cell-based; conditions: of 5 strains, pH 5.5
Method: as §1, §2

Wistar rats = test: Acute oral toxicity in Wistar rats (Litchfield and Wilcoxon); format: in vivo; conditions: rat
[1] = tested on: 90 strains of different Gram-positive and Gram-negative bacterial species; test: In vitro antibacterial activity, all 90 strains; format: cell-based, Gram-positive and Gram-negative bacteria; conditions: for Antibacterial activity (in words): all microorganisms, AFP 829 versus EMTA
Method: as §1, §2

Pseudomonas aeruginosa = test: In vitro antibacterial activity, M.I.C., Pseudomonas aeruginosa; format: cell-based; conditions: 62.5 mcg/ml (EMTA; AFP 829 equimolar); of 10 strains; pH 5.5
Method: as §1, §2

E. coli = test: In vitro antibacterial activity, M.I.C., E. coli; format: cell-based; conditions: of 10 strains, pH 5.5
Method: as §1, §2

Proteus spp = test: In vitro antibacterial activity, M.I.C., Proteus spp; format: cell-based; conditions: of 10 strains, pH 5.5
Method: Proteus spp (10 strains)
as §1, §2

[2] = in vivo, po
liver affections = test: Protective activity against liver affections
Serratia spp = test: In vitro antibacterial activity, M.I.C., Serratia spp; format: cell-based; conditions: of 5 strains, pH 5.5
Method: Serratia spp (5 strains)
as §1, §2

Salmonella spp = test: In vitro antibacterial activity, M.I.C., Salmonella spp; format: cell-based; conditions: of 10 strains, pH 5.5
Method: Salmonella spp (10 strains)
as §1, §2

Klebsiella spp = test: In vitro antibacterial activity, M.I.C., Klebsiella spp; format: cell-based; conditions: of 7 strains, pH 5.5
Method: Klebsiella spp (7 strains)
as §1, §2

Staphylococcus aureus = test: In vitro antibacterial activity, M.I.C., Staphylococcus aureus; format: cell-based; conditions: of 15 strains, pH 5.5
Method: as §1, §2

male Wistar rats = test: Mucosecretolytic activity in male Wistar rats (method of H. Mawatari); format: in vivo, rat; conditions: for % increase of sodium fluorescein compared with controls: 250 mg/Kg p.o., 10 animals; for Mucosecretolytic activity (in words): oral, rats
Method: Mucosecretolytic activity was determined in male Wistar rats after AFP 829 administration given via the oral route. The method described by H. Mawatari was used for the determination [H. Mawatari, Kagoshima Daiagaku, Igaku Zasshi 27, 561 (1976)]. A drug of known activity--carboxymethylcysteine--was used as the reference standard.

strain of Ps. aeruginosa = tested on: strain of Ps. aeruginosa; parameters: species or system Sprague Dawley rats; Ps. aeruginosa; conditions: rat, in vivo, ip
Method: Each group of animals received the substances i.p. in […] of sterile saline; the animals were placed in metabolic cages with free access to water. Urine samples were collected at the following intervals:
1 ml of nutrient broth at pH 5.5, containing approximately […] colony-forming units of a strain of Ps. aeruginosa sensitive to the action of both substances, was added to 1 ml of the urine or the standard solution of the two drugs dissolved in distilled water.
Standard and urine samples were sequentially diluted twofold by means of the same broth containing the microorganisms until a 1:2048 dilution was achieved.
After overnight incubation at 37° C. the maximum dilution (limit dilution) of the substances or samples inhibiting bacterial growth was determined.
Therefore the concentration of the substances in the urine samples was determined using the formula below: [formula]

Streptococcus = test: In vitro antibacterial activity, M.I.C., Streptococcus (pyogenes); format: cell-based; conditions: of 15 strains, pH 5.5
Method: as §1, §2

[3] = Acute oral toxicity in Swiss mice (Litchfield and Wilcoxon); format: in vivo; conditions: in vivo, mouse
[4] = Acute oral toxicity in Wistar rats (Litchfield and Wilcoxon); format: in vivo; conditions: in vivo, rat
[5] = in vivo; cited from earlier work
[6] = Pharmacokinetics in laboratory animals after oral administration
[7] = 62.5 mcg/ml (EMTA; AFP 829 equimolar)
[8] = 31.2 mcg/ml (EMTA; AFP 829 equimolar)
[9] = listed as hexamethylenetetramine-N-acetyl-thiazolidine-4-carboxylate (I)
[10] = 125 mcg/ml (EMTA; AFP 829 equimolar)
[11] = 15.6 mcg/ml (EMTA; AFP 829 equimolar)
[12] = 250 mcg/ml (EMTA; AFP 829 equimolar)

Row | Molecule | M.I.C., cumulative number of strains inhibited (Citrobacter spp; [7]) [strains] | M.I.C., cumulative number of strains inhibited (Enterococcus; [7]) [strains] | Antibacterial activity (in words) [1] | M.I.C., cumulative number of strains inhibited (Pseudomonas aeruginosa) [strains] | M.I.C., cumulative number of strains inhibited (E. coli; [7]) [strains] | M.I.C., cumulative number of strains inhibited (Proteus spp; [7]) [strains] | M.I.C., cumulative number of strains inhibited (Serratia spp; [7]) [strains] | M.I.C., cumulative number of strains inhibited (Serratia spp; [10]) [strains] | M.I.C., cumulative number of strains inhibited (Salmonella spp; [7]) [strains] | M.I.C., cumulative number of strains inhibited (Klebsiella spp; [7]) [strains] | M.I.C., cumulative number of strains inhibited (Staphylococcus aureus; [7]) [strains] | M.I.C., cumulative number of strains inhibited (Staphylococcus aureus; [10]) [strains] | % increase of sodium fluorescein compared with controls (male Wistar rats) [%] | M.I.C., cumulative number of strains inhibited (Streptococcus; [11]) [strains] | M.I.C., cumulative number of strains inhibited (Streptococcus; [7]) [strains] | M.I.C., cumulative number of strains inhibited (Streptococcus; [10]) [strains] | LD50 [3] [mg/kg] | LD50 [4] [mg/kg] | further results
1 | C1N2CN3CN1CN(C2)C3.CC(=O)N1CSCC1C(=O)O (centres unmarked) [AFP 829, hexamethylenetetramine-N-acetyl-thiazolidine-4-carboxylate] | 3 | 5 | active in comparison with all of the microorganisms used | 10 | 10 | 10 | 4 | 5 | 10 | 7 | 13 | 15 | 96.1 | 5 | 12 | 15 | – | – | LD50 (Swiss mice): 1350 mg/kg; M.I.C., cumulative number of strains inhibited (Enterococcus; [8]): 1 strains; LD50 (Wistar rats): 2100 mg/kg; M.I.C.: no microorganism resistant to concentrations higher than ([1]; all microorganisms used, pH 5.5): ≤ 125 µg/mL; Antibacterial activity (in words) [1, 9]: higher antibacterial activity than hexamethylenetetramine; M.I.C., cumulative number of strains inhibited (Proteus spp; [8]): 3 strains; Occurrence in urine (in words) [2]: selectively occur in the urine along with the active metabolites thereof; Protective activity against liver affections (in words) (liver affections): protective activity against liver affections; M.I.C., cumulative number of strains inhibited (Salmonella spp; [8]): 1 strains; Mucosecretolytic activity (in words) (male Wistar rats): powerful mucosecretolytic activity, markedly higher than the standard substance; Mucosecretolytic activity (in words) (male Wistar rats; [9]): remarkable mucosecretolytic properties; Concentration in urine (strain of Ps. aeruginosa; 1.5 h): 2000 mcg/ml of urine; Concentration in urine (strain of Ps. aeruginosa; 2.5 h): 4000 mcg/ml of urine; Concentration in urine (strain of Ps. aeruginosa; 4.5 h): 4000 mcg/ml of urine; Concentration in urine (strain of Ps. aeruginosa; 6.5 h): 1000 mcg/ml of urine
2 | C1N2CN3CN1CN(C2)C3 [EMTA, hexamethylenetetramine] | 1 | 4 | slightly less active | 10 | 8 | 10 | 4 | 5 | 9 | 6 | 10 | 14 | – | 7 | 11 | 13 | 1500 | 1050 | M.I.C., cumulative number of strains inhibited (Citrobacter spp; [10]): 3 strains; M.I.C., cumulative number of strains inhibited (Enterococcus; [10]): 5 strains; M.I.C., cumulative number of strains inhibited (E. coli; [10]): 10 strains; M.I.C., cumulative number of strains inhibited (Salmonella spp; [10]): 10 strains; M.I.C., cumulative number of strains inhibited (Klebsiella spp; [10]): 7 strains; M.I.C., cumulative number of strains inhibited (Staphylococcus aureus; [12]): 15 strains; Converted to formaldehyde in acid urine [5]: about 15%; Eliminated unchanged in the urine [5]: 90%; M.I.C., cumulative number of strains inhibited (Streptococcus; [12]): 14 strains; M.I.C., cumulative number of strains inhibited (Streptococcus; 500 mcg/ml (EMTA; AFP 829 equimolar)): 15 strains; Occurrence in urine (in words) [6]: selectively occur in the urine along with the active metabolites thereof
3 | O=C(O)C1CSCN1 (centres unmarked) [TCA, thiazolidine-4-carboxylic acid] | – | – | – | – | – | – | – | – | – | – | – | – | – | – | – | – | 400 | 800 | –
4 | carboxymethylcysteine | – | – | – | – | – | – | – | – | – | – | – | – | 33.4 | – | – | – | – | – | –
